Tested on: C57BLKS/J db/db mice
Test: 3 months feeding study on muscle mass in db/db mice (NMR muscle mass, body weight, food intake)
Format: in vivo
Details: for effect on muscle loss (in words) / muscle mass increase: db/db mice, 3 months of treatment; for effect on muscle loss (in words) / muscle mass increase / BW (g), change from baseline / Muscle (g), change from baseline: 0.08% of diet; for muscle mass increase: control reduced by 2%; for BW (g), change from baseline / Muscle (g), change from baseline / BW (g), 5 months old mice / Muscle (g), 5 months old mice: male db/db mice, after 3 months of treatment; for BW (g), 5 months old mice / Muscle (g), 5 months old mice: 0.08% of diet as feed-ad-mix; for Muscle (g), 5 months old mice: total muscle mass by NMR
Method: The efficacy of resveratrol, EGCG as well as the combination of both compounds on muscle mass was tested in a 3 months feeding study in C57BLKS/J db/db mice (n=20/group). C57BLKS/J db/db mice suffer from severe metabolic disorder due to a defect in the leptin receptor and loss muscle mass as they age. Muscle wasting has been associated with chronic metabolic derangements. Moreover, muscle wasting induced by a variety of means in both rodents and humans results in similar changes in muscle anatomy, cross-sectional area, function, fiber type switching, contractile protein expression, and histology. […] These agents include anabolic steroids, growth hormone, insulin-like growth factor 1, and beta adrenergic agonists. […] Therefore, the rodent model can be used to evaluate the efficacy of compounds inhibiting muscle wasting.
Male db/db mice were obtained from Jackson Laboratory (Bar Harbor, Me., USA). Adult mice at the age of 8 weeks were used in the experiment. Mice were housed individually in plastic cages with bedding and allowed free access to standard rodent food and tap water. The animal rooms were controlled for temperature (24° C.), humidity (55%), and light (12-h light-dark cycle). The animals were randomized into four groups. Resveratrol and EGCG were administered as feed-ad-mix. Corn cellulose (1% of diet) served as a carrier substance for resveratrol and EGCG as well as a placebo when used alone. Group 1 received placebo, group 2 received a diet containing 0.08% of resveratrol; group 3 received a diet containing 0.08% of EGCG; and group 4 received a diet containing 0.08% of resveratrol and 0.08% of EGCG. Body weight and food intake were determined over the course of the study. Total muscle mass was determined by nuclear magnetic resonance (NMR) measurement after 3 months of treatment. There was no difference in food intake between the groups over the study period.

Compound | effect on muscle loss (in words) | muscle mass increase [%] | BW (g), change from baseline [g] | Muscle (g), change from baseline [g] | BW (g), 5 months old mice [g] | Muscle (g), 5 months old mice [g]
(−)-epigallocatechin gallate [EGCG] | prevents muscle loss | 3 | 1.0 | 0.5 | 31.4 | 16.2
Oc1ccc(C=Cc2cc(O)cc(O)c2)cc1 [Resveratrol, resveratrol] | prevents muscle loss | 6 | 3.9 | 1.0 | 34.2 | 17.0
